The text below walks through data of a melting point compilation (Tetko et al.; mined from patent text by program, amines drawn as free bases though some values may be those of a salt).

The structures appear in SMILES notation. Residues, ends and D or L forms follow the SMILES beside them. *: point of attachment. NHPhenethyl = c1ccc(CCN*)cc1; Cbz = O=C(OCc1ccccc1)* Where only a bound is given, the exact number is not on record here.

For `CC(C)(Cc1ccc(Cl)cc1Cl)C(=O)Cn1cncn1`, the melting point stood at 85 °C.

`COC(=O)C(=O)c1ccc(OCCSc2ccc3ccccc3c2)cc1`: the melting point fell in the range of 63 to 65 °C.

For the molecule `CCOC(=O)CCCCCOc1cc(C=CC2=C(C#N)C(=C(C#N)C#N)OC2(C)C)ccc1N`, the melting point came out at 164 °C.

In the case of `O=C(Nc1ccc2c(c1)CCN2)C(=O)N1CCC(Cc2ccccc2)CC1`, the melting point lay in the range of 75 to 76 °C.

Regarding `Clc1cccc(Nn2cnc3c2CCCC3)c1`, the melting point was determined as 180 °C.

The molecule `COC(=O)C1Cc2c([nH]c3ccccc23)C(c2ccc(O)c(OC)c2)N1` (configuration not stated) yielded a melting point of 195 °C.

The molecule `COC(=O)c1ccc(C#Cc2ccccc2)cc1` showed a melting point of 114 °C.

Turning to `O=C(NO)[C@@H](CC(=O)N1CCOCC1)NS(=O)(=O)c1ccc(Oc2ccccc2)cc1`, the melting point was 161 to 163 °C.

Regarding `CC(=O)CCc1nc2ccc3c(c2o1)C(CCNC(C)=O)CC3` (configuration not stated), the melting point was in the range of 111 to 112 °C.

Turning to `O=[N+]([O-])c1ccc(Cl)c(C=Cc2nc3ccccc3s2)c1`, the melting point lay within 188 to 189 °C.

For `O=C(NC1CCN(CCCc2ccc(F)cc2)C1)C12CC3CC(CC(C3)C1)C2` (configuration not stated), the melting point is 114 to 115 °C.

With `CCN(CC)C(=O)Cc1cc(C(C)(C)C)c(O)c(C(C)(C)C)c1`, the melting point is 111 to 113 °C.

`CCc1ccc2c(c1)C=Cc1cc(C)ccc1C2c1cn(-c2ccnc(NCC(=O)Nc3ncc(CC(=O)O)s3)n2)c(=O)[nH]c1=O` (configuration not stated) came in with a melting point of 206 to 208 °C.

The molecule `COC(=O)c1ccc2oc3c(c(=O)c2c1)CCC3=Cc1ccc(C)cc1C` registered a melting point of 212 to 214 °C.

Take `CCOC(=O)c1cn(OC)c2ccccc2c1=O`: the melting point lay within 120 to 121 °C.

`CNc1ccc(C)nc1N` showed a melting point of 112 to 113 °C.

`COC1(c2ccc(C(C)C)cc2OCc2ccccc2)C(=O)c2ccccc2C1=O` had a melting point of 140 to 144 °C.

Turning to `COCc1nn(C)c(O)c1C(=O)c1ccc(S(C)(=O)=O)c(COC)c1C`, the melting point is 100 to 104 °C.

On to `COc1ccc(N)cc1C(=O)NCc1ccc(C(F)(F)F)cc1`, for which the melting point lay within 115 to 117 °C.

Regarding `COC(=O)/C=C/c1ccc(Br)s1`, the melting point was 60 to 62 °C.

For `COc1cc2ncnc(N3CCc4ccc(Cl)cc43)c2cc1Cl`, the melting point came out at 226 °C.

For `CCN(CC)C(=O)c1ccc(C(=C2CCN(Cc3ccccc3)CC2)c2ccc(Cl)cc2)cc1`, the melting point lay in the range of 100 to 110 °C.

Take `CCCCCC(=O)OCc1nccc2[nH]c(=O)ccc12`: the melting point lay in the range of 158 to 159 °C.

`CC(C)(C)NC(=O)OC1SCN(c2ccccc2)C1=O` (configuration not stated) displayed a melting point of 146 to 148 °C.

`OCC1OC(n2c(Cl)c(-c3ccsc3)c3cc(Cl)c(Cl)cc32)CC1O` (configuration not stated) gave a melting point of 144 to 145 °C.

The molecule `Cc1c(C)c2c(c(C)c1N)C(c1ccc(C(C)C)cc1)C1(CCCC1)O2` (configuration not stated) displayed a melting point of 132 to 133 °C.

`Cc1nn(CCO)c(C)c1Sc1cc(Cl)cc(Cl)c1`: the melting point was 118 to 120 °C.

The molecule `COc1cccc(CNC(=O)c2nc3ccc(-c4ccccc4)cc3c(=O)[nH]2)c1` showed a melting point of 202 to 204 °C.

Consider `CC(C)(C)OC(=O)NC1C=C(C(=O)O)OC1` (configuration not stated), for which the melting point is 117 to 120 °C.

`CCCn1c(=Nc2ccc([N+](=O)[O-])cc2)sc2ncccc2c1=O` showed a melting point of 112 to 113 °C.

`CCCCNC(=O)c1cnc2ccccn2c1=O` gave a melting point of 127 to 130 °C.

`Nc1nc(C(=O)NCCO)cs1` registered a melting point of 118 to 120 °C.

In turn, `CC(C)c1ccc(S(=O)(=O)Nc2cnc(I)cc2C(F)(F)F)cc1` showed a melting point of 156 °C.

`Cc1c2n(c3ccccc13)C(=O)C(C(O)c1cn(C(c3ccccc3)(c3ccccc3)c3ccccc3)c(C)n1)CC2` (configuration not stated) showed a melting point of 135 to 136 °C.

Molecule `COc1ccc(NC(=O)c2csc(Br)c2OC)cc1N1CCN(C)CC1` showed a melting point of 120 to 122 °C.

In turn, `CNC(=C[N+](=O)[O-])NCCCCc1ccccn1` showed a melting point of 90 to 91 °C.

Turning to `Cc1ccc(-n2c3ccc(C=O)cc3c3cc(C=O)ccc32)cc1`, the melting point is 229 to 230 °C.

`O=C(c1cc(-c2ccccc2)ccn1)N(O)Cc1ccccc1`: the melting point lay in the range of 160 to 165 °C.

The molecule `O=C(CC=C(Cl)Cl)Oc1ccc([N+](=O)[O-])cc1` yielded a melting point of 80 to 90 °C.

On to `CCNC(=O)c1ccc2ncc(C3CCN(C)CC3)c-2[nH]1`, for which the melting point lay in the range of 117 to 120 °C.

In turn, `CN1CCN(C2=CCCc3ccc(OCc4ccc(Cl)cc4)cc32)CC1` displayed a melting point of 115 to 116 °C.

Regarding `C=C1C[C@@H]2[C@H](CC[C@]3(C)C(=O)CC[C@@H]23)[C@@]2(C)CCC(=O)C(OC(C)=O)=C12`, the melting point is 183 to 185 °C.

The molecule `COC(=O)COc1ccc(C(=O)NC(=O)Nc2ccc(C#N)cc2)cc1` registered a melting point of 204 to 207 °C.

Take `CS(=O)(=O)O[C@H](COCc1ccccc1)[C@@H](COCc1ccccc1)OS(C)(=O)=O`: the melting point was in the range of 72 to 73 °C.

The molecule `CSc1nccn1-c1cccc(C(=O)CC(=O)Nc2cc(-c3ccccc3F)c(OC(C)(C)C)cc2NC(=O)OC(C)(C)C)c1` returned a melting point of 59 to 62 °C.

Regarding `CCCCc1nn(-c2ccc(C(F)(F)F)cn2)cc1CCCO`, the melting point fell in the range of 93 to 94 °C.

For `CN(C)NC(=O)c1ccc(-c2ccc(Cl)cc2)o1`, the melting point is 150 to 152 °C.

In turn, `O=C1NCCN1Cc1ccncc1` had a melting point of 153 to 155 °C.

On to `CC1(C)C=C(c2cccnc2)c2cc(Cl)c(Cl)cc2OC1`, for which the melting point was 112 °C.

The molecule `CCOCCn1cc2c(C3C(=O)Nc4ccc(Cl)cc43)nc(NCC(C)O)nc2n1` (configuration not stated) returned a melting point of more than 300 °C.

In the case of `CNC(=O)NCc1cccc2c1S(=O)(=O)N=C2C1=C(O)C(C(C)(C)C)N(Cc2ccc(F)cc2)C1=O` (configuration not stated), the melting point was more than 250 °C.

In turn, `CN1CCC(OC2c3ccccc3CCn3c2nc(I)c3I)CC1` (configuration not stated) displayed a melting point of 163 °C.

`COc1ccc(NC(=O)c2ccc(-c3ccc(-c4noc(C)n4)cc3C)cc2)cc1S(=O)CCN(C)C` (configuration not stated): the melting point lay in the range of 204 to 206 °C.

Molecule `Nc1ncc(-c2ccccc2)nc1-c1ccc(O)cc1` registered a melting point of 181 to 183 °C.

For `O=C(O)C1CCN(C(=O)NS(=O)(=O)C=Cc2ccccc2)CC1`, the melting point lay in the range of 179 to 181 °C.

In turn, `CCc1ccc2c(c1)C(Cl)Cc1ccc(F)cc1S2` (configuration not stated) had a melting point of 68 to 70 °C.

Take `CC(=O)Oc1ccccc1C(=O)NC(Cl)C(Cl)(Cl)Cl` (configuration not stated): the melting point was in the range of 88 to 90 °C.

The molecule `CON1Cc2c(cc3ccc4c(c3c2-c2ccc3c(c2)OCO3)OCO4)C1=O` showed a melting point of 214 to 216 °C.

`C=CCc1c(O)c2cccnc2n(-c2ccccc2)c1=O` registered a melting point of 248 to 250 °C.

For the molecule `O=C(Nc1ccc2[nH]nnc2c1)N1CCN(c2nc(-c3ccccc3)ns2)CC1`, the melting point was 271 to 272 °C.

`FC(F)(F)c1cccc(-c2cc(C(F)(F)F)n3ncc(I)c3n2)c1` returned a melting point of 142 °C.

Molecule `CCc1nc2c(C)cc(C)nc2n1Cc1ccc(C(=Cc2nnn[nH]2)c2ccc(C(F)(F)F)cc2)cc1` returned a melting point of 124 to 129 °C.

As to `CN1C(=O)CC[C@]2(C)c3ccc(-c4ccc(F)c(F)c4F)cc3CC[C@@H]12`, the melting point was 100 to 102 °C.

In turn, `Oc1c2c(nn1-c1ccc(F)cc1)CCc1cc(F)ccc1-2` had a melting point of 220 to 221 °C.

`C=CCc1cc(-c2nc(C)no2)ccc1O`: the melting point lay within 135 to 137 °C.

Consider `Cc1cc([N+](=O)[O-])cnc1CCC#N`, for which the melting point was in the range of 73 to 74 °C.

For the molecule `O=C(Nc1ccc(-n2nc(C(F)(F)F)cc2C(F)(F)F)cc1)c1cc(F)c(F)cc1F`, the melting point lay within 109 to 111 °C.

Take `CC(=O)N[C@@H](CC(C)C)C(=O)N[C@@H](CC(C)C)C(=O)N[C@H]1CCCOC1OC(C)=O` (some centres not stated): the melting point lay within 238 to 240 °C.

`C#CCSc1ncc(Cl)cn1`: the melting point was 66 °C.

`Cc1nc(N2CCN(CCC3CC3)C2=O)sc1-c1cc[nH]n1` showed a melting point of 147 to 149 °C.

In turn, `CC[C@H]1[C@@H](N)CN1c1cc2c(cc1F)c(=O)c(C(=O)O)cn2C1CC1` (relative stereo) gave a melting point of 236 to 237 °C.

As to `Cc1[nH]nc(C(F)(F)F)c1-c1cncc(OC2SCC(O)C(O)C2O)c1` (configuration not stated), the melting point amounted to 234 °C.

`Oc1ccc2c(c1)COc1c-2cc2ccc(O)cc2c1-c1cc(F)cc(F)c1`: the melting point was in the range of 238 to 240 °C.

In turn, `CCCC(=O)c1cnc2c(C(C)=O)cccc2c1Nc1ccc(O)cc1C` displayed a melting point of 183 to 185 °C.

As for `O=C1NCCN1c1ccc(S(=O)(=O)Nc2ccc(F)c(F)c2)cc1`, the melting point was 225 to 226 °C.

In turn, `NC(=O)CC(NC(=O)C(CO)NC(=O)CNC(=O)CNC(=O)OCc1ccccc1)C(=O)NC(Cc1ccccc1)C(=O)NCCc1ccccc1` (configuration not stated) (Cbz-GGSNF-NHPhenethyl; configuration not given here) showed a melting point of 225 to 229 °C.

In the case of `N#Cc1ccccc1-c1ccc(CN2C(=O)c3ccccc3C2=O)cc1`, the melting point fell in the range of 150 to 153 °C.

As to `Fc1ccc(CC[C@H]2CNCCN2)cc1`, the melting point fell in the range of 112 to 114 °C.

In turn, `c1ccc2c(CCOc3cncc(N4CCNCC4)n3)c[nH]c2c1` yielded a melting point of 133 to 135 °C.

In turn, `Cn1c(C(F)(F)F)cc(=O)n(-c2ccc3snc(-c4nc5ccccc5[nH]c4=O)c3c2)c1=O` returned a melting point of more than 250 °C.

For the molecule `O=C(O)c1cc(O)cc2ccccc12`, the melting point was in the range of 210 to 212 °C.

With `COc1ccc(-c2ccc(C(=O)Nc3ccc4cc(CN5CCCC5)cnc4c3F)c(F)c2)cc1`, the melting point was in the range of 182 to 183 °C.

For the molecule `CCOC(=O)C1=C(COCc2cc(=O)n(C)c(C)n2)NC(C)=C(C(=O)OC)C1c1cccc(Cl)c1Cl` (configuration not stated), the melting point was in the range of 153 to 158 °C.

`CCOC(=O)c1nc(-c2cccc([N+](=O)[O-])c2)cs1` yielded a melting point of 149 to 150 °C.

As to `CC1(C)CC(=O)c2c(S(C)(=O)=O)sc(-c3cc[nH]n3)c2C1`, the melting point was in the range of 213 to 216 °C.

Consider `COc1cnc(CSc2nc3cc(OCC(F)(F)F)ccc3[nH]2)cc1OC`, for which the melting point was in the range of 55 to 57 °C.

Consider `O=[N+]([O-])c1ccc(Cc2nc(-c3ccncc3)cs2)cc1`, for which the melting point lay in the range of 140 to 142 °C.

As a reminder, the melting point is the temperature, or range, at which the solid turns liquid.
